According to ChEMBL document CHEMBL1817632, “Synthesis and cytotoxic activity of the heptaphylline and 7-methoxyheptaphylline series” (Eur J Med Chem, 2011):
Active and inactive are the calls of the source. No cut-off for these calls is given here.

How the values were obtained:
KB [1] = test: Cytotoxicity against human KB cells at >200 uM after 3 days by resazurin microplate assay; type: functional, cell-based
Vero [2] = test: Cytotoxicity against african green monkey Vero cells expressing green fluorescent protein at > 200 uM after 4 days by fluorescence analysis; type: cell-based; details: chlorocebus sabaeus, 96 h
NCI-H187 [3] = test: Cytotoxicity against human NCI-H187 cells at >200 uM after 5 days by resazurin microplate assay; type: functional, cell-based
NCI-H187 [4] = test: Cytotoxicity against human NCI-H187 cells after 5 days by resazurin microplate assay; type: functional, cell-based; details: NCI-H187, 120 h
KB [5] = test: Cytotoxicity against human KB cells after 3 days by resazurin microplate assay; type: functional, cell-based; details: 72 h
Vero [6] = test: Cytotoxicity against african green monkey Vero cells expressing green fluorescent protein after 4 days by fluorescence analysis; type: cell-based; details: chlorocebus sabaeus, 96 h
KB [7] = test: Ratio of Ellipticine IC50 to compound IC50 for human KB cells; type: functional
NCI-H187 [8] = test: Ratio of Ellipticine IC50 to compound IC50 for human NCI-H187 cells; type: functional

| Compound | Activity (KB [1]) | Activity (Vero [2]) | Activity (NCI-H187 [3]) | IC50 (NCI-H187 [4]) [µM] | IC50 (KB [5]) [µM] | IC50 (Vero [6]) [µM] | Ratio IC50 (KB [7]) | Ratio IC50 (NCI-H187 [8]) |
| --- | --- | --- | --- | --- | --- | --- | --- | --- |
| COc1ccc2c(c1)[nH]c1c3c(c(C=O)cc12)OC(C)(C)CC3 | inactive | Non-toxic | inactive | – | – | – | – | – |
| COc1ccc2c(c1)[nH]c1c(CC=C(C)C)c(OC)c(C=O)cc12 | – | – | – | 19.5 | 11 | 61.1 | – | – |
| COc1ccc2c(c1)[nH]c1c(CC=C(C)C)c(O)c(C=O)cc12 | – | Non-toxic | – | – | – | – | – | – |
| CC(C)=CCc1c(O)c(C=O)cc2c3ccccc3n(C)c12 | – | – | – | 44.2 | 166 | 34.6 | – | – |
| Cc1c2ccncc2c(C)c2c1[nH]c1ccccc12 [ELLIPTECINE] | – | – | – | 2.77 | – | 3.82 | – | – |
| COc1ccc2c3cc(C=O)c(OC)c(CC=C(C)C)c3n(C)c2c1 | – | – | – | 4.83 | 69.8 | 45.9 | – | – |
| COc1ccc2c(c1)[nH]c1c(CC=C(C)C)c(O)c(/C=N\O)cc12 | – | Non-toxic | – | 3.67 | 18.2 | – | – | – |
| COc1c(C=O)cc2c([nH]c3ccccc32)c1CC=C(C)C | – | – | – | 4.49 | 12.8 | 170 | – | – |
| CC1(C)OC1Cc1c(O)c(C=O)cc2c1[nH]c1ccccc12 (stereo not given) | – | – | – | 5.31 | 54.8 | 74.5 | – | – |
| COc1ccc2c(c1)[nH]c1c3c(c(C=O)cc12)OC(C)(C)C(O)C3 (stereo not given) | – | Non-toxic | – | 3.04 | 120 | – | – | – |
| CC(C)=CCc1c(O)c(/C=N\O)cc2c1[nH]c1ccccc12 [HEPTAPHYLLINE OXIME] | – | – | – | 0.02 | 0.17 | 66 | 10 | 138 |
| CC(C)(O)C(Br)Cc1c(O)c(C=O)cc2c1[nH]c1ccccc12 (stereo not given) | – | Non-toxic | – | 30.2 | 17.4 | – | – | – |
| CC1(C)Oc2c(C=O)cc3c([nH]c4ccccc43)c2CC1Br (stereo not given) | – | Non-toxic | – | 77.4 | 6 | – | – | – |
| CC1(C)Oc2c(C=O)cc3c([nH]c4ccccc43)c2CC1O (stereo not given) | – | Non-toxic | – | 6.06 | 5.99 | – | – | – |
| COc1cc2[nH]c3c4c(c(C=O)cc3c2cc1Br)OC(C)(C)C(Br)C4 (stereo not given) | inactive | Non-toxic | inactive | – | – | – | – | – |
| CC1(C)CCc2c(c(C=O)cc3c2[nH]c2ccccc23)O1 | – | Non-toxic | – | 65.2 | 26.4 | – | – | – |
| COc1c(C=O)cc2c3ccccc3n(C)c2c1CC=C(C)C | – | – | – | 62.5 | 147 | 149 | – | – |
| COc1ccc2c(c1)[nH]c1c(CC3OC3(C)C)c(O)c(C=O)cc12 (stereo not given) | – | – | – | 20.1 | 9.22 | 75.3 | – | – |
| COc1ccc2c(c1)[nH]c1c3c(c(C=O)cc12)OC(C(C)(C)O)C3 (stereo not given) | – | Non-toxic | – | 12.9 | 71.2 | – | – | – |
| COc1cc2[nH]c3c(CC(Br)C(C)(C)O)c(O)c(C=O)cc3c2cc1Br (stereo not given) | – | – | – | 0.66 | 36.3 | 12.5 | – | 4 |
